Assay results reported in patent US20250195530A1, “POLQ INHIBITORS” (ASTRAZENECA AB, priority 2022, published 2025).
Read-outs that look alike come from different tables or passages of the source.

Assays:
DLD-1 cells = test: Inhibition of proliferation, DLD-1 BRCA2 wt control (Cell Titre Glo 3D); assay type: cell-based; conditions: Homo sapiens, DLD-1, 168 h, 7 days
In short: (§1)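 Read-out: CellTiter-Glo 3D luminescence, day 7 for wt DLD-1, day 12 for BRCA2−/−, about 8-9 population doublings each. Seeding 1,500 or 3,000 cells/mL respectively. Dose range 10 μM–0.51 nM, 3-fold, 10 points, with re-dosing on day 6. IC50 from curve fit.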

DLD-1 BRCA2−/− cells = test: Homologous recombination synthetic lethal inhibition of proliferation, DLD-1 BRCA2-/- (Cell Titre Glo 3D); assay type: cell-based; conditions: Homo sapiens, DLD-1, 288 h, 12 days
In short: as §1

[1] = DLD-1 (BRCA2 wt control), Cell Titre Glo 3D, read-out: POLQ PD Prolif Lumin DLD1 Mean pIC50 (converted)
[2] = DLD-1 BRCA2−/−, Cell Titre Glo 3D, read-out: POLQ PD Prolif Lumin BRCA2 −/− Mean pIC50 (converted)
[3] = DLD-1 BRCA2 wt cells, read-out: POLQ PD Prolif Lumin DLD1 mean pIC50 (converted)
[4] = DLD-1 BRCA2−/− cells, read-out: POLQ PD Prolif Lumin BRCA2 −/− mean pIC50 (converted)

Row | SMILES | IC50 (DLD-1 cells; [1]) | IC50 (DLD-1 BRCA2−/− cells; [2]) | IC50 (DLD-1 cells; [3]) | IC50 (DLD-1 BRCA2−/− cells; [4])
1 | Cc1ccnc(Cn2c(-c3ccc(OC4CNC(=O)NC4)cc3Cl)nc3c(OC4(C)CC4)ncnc32)c1 [Example 42, 5-(3-Chloro-4-(6-(1-methylcyclopropoxy)-9-((4-methylpyridin-2-yl)methyl)-9H-purin-8-yl)phenoxy)tetrahydropyrimidin-2(1H)-one] | > 10 µM | 6.31 µM |  | 
2 | CC1(Oc2ncnc3c2nc(-c2ccc(OCCCCC(=O)O)cc2Cl)n3Cc2cccc(Cl)c2)CC1 [Example 43, 5-(3-Chloro-4-(9-(3-chlorobenzyl)-6-(1-methylcyclopropoxy)-9H-purin-8-yl)phenoxy)pentanoic acid] | > 10 µM | 0.0794 µM |  | 
3 | CC1(Oc2ncnc3c2nc(-c2ccc(OCCCC(=O)O)cc2Cl)n3Cc2cccc(Cl)c2)CC1 [Example 44, 4-(3-Chloro-4-(9-(3-chlorobenzyl)-6-(1-methylcyclopropoxy)-9H-purin-8-yl)phenoxy)butanoic acid] | > 10 µM | 0.158 µM |  | 
4 | Cc1ccnc(Cn2c(-c3ccc(OCC(C)(C)O)cc3Cl)nc3c(OC4(C)CC4)ncnc32)c1 [Example 45, 1-(3-Chloro-4-(6-(1-methylcyclopropoxy)-9-((4-methylpyridin-2-yl)methyl)-9H-purin-8-yl)phenoxy)-2-methylpropan-2-ol] | > 10 µM | 0.2 µM |  | 
5 | CC1(Oc2ncnc3c2nc(-c2ccc(OCCOCC(=O)O)cc2Cl)n3Cc2cccc(Cl)c2)CC1 [Example 46, 2-(2-(3-Chloro-4-(9-(3-chlorobenzyl)-6-(1-methylcyclopropoxy)-9H-purin-8-yl)phenoxy)ethoxy)acetic acid] | > 10 µM | 1.26 µM |  | 
6 | COc1ccc(Cl)cc1Cn1c(-c2ccc(OCC[C@@H](C)C(=O)O)cc2Cl)nc2c(OC3(C)CC3)ncnc21 [Example 47, (R)-4-(3-chloro-4-(9-(5-chloro-2-methoxybenzyl)-6-(1-methylcyclopropoxy)-9H-purin-8-yl)phenoxy)-2-methylbutanoic acid] | > 7.94 µM | 0.0251 µM |  | 
7 | COc1ccc(Cl)cc1Cn1c(-c2ccc(OCC[C@H](C)C(=O)O)cc2Cl)nc2c(OC3(C)CC3)ncnc21 [Example 48, (S)-4-(3-chloro-4-(9-(5-chloro-2-methoxybenzyl)-6-(1-methylcyclopropoxy)-9H-purin-8-yl)phenoxy)-2-methylbutanoic acid] | > 10 µM | 0.0398 µM |  | 
8 | COc1ccc(Cl)cc1Cn1c(-c2cccc(OCCC(=O)O)c2Cl)nc2c(OC3(C)CC3)ncnc21 [Example 49, 3-(2-Chloro-3-(9-(5-chloro-2-methoxybenzyl)-6-(1-methylcyclopropoxy)-9H-purin-8-yl)phenoxy)propanoic acid] | > 10 µM | 0.0158 µM |  | 
9 | COc1ccc(Cl)cc1Cn1c(-c2cccc(O[C@H]3C[C@@H](C(=O)O)C3)c2Cl)nc2c(OC3(C)CC3)ncnc21 [Example 52, (1s,3s)-3-(2-chloro-3-(9-(5-chloro-2-methoxybenzyl)-6-(1-methylcyclopropoxy)-9H-purin-8-yl)phenoxy)cyclobutane-1-carboxylic acid] | > 10 µM | 0.0126 µM |  | 
10 | CC(=O)NCCCOc1ccc(-c2nc3cc(OC(C)C)ccc3n2Cc2ccccc2)c(Cl)c1 [Example A3, N-(3-(4-(1-benzyl-5-isopropoxy-1H-benzo[d]imidazol-2-yl)-3-chlorophenoxy)propyl)acetamide] |  |  | 5.01 µM | 0.501 µM
11 | Cc1cc(OCCN2CCN(C)CC2)ncc1-c1nc2cc(OC(C)C)ccc2n1Cc1cccc(Cl)c1 [Example A7, 1-(3-chlorobenzyl)-5-isopropoxy-2-(4-methyl-6-(2-(4-methylpiperazin-1-yl)ethoxy)pyridin-3-yl)-1H-benzo[d]imidazole] |  |  | 1.58 µM | 0.251 µM
12 | COc1ccc(-c2nc3cc(OC(C)C)ccc3n2Cc2ccccc2)c(Cl)c1 [Example A12, 1-benzyl-2-(2-chloro-4-methoxyphenyl)-5-isopropoxy-1H-benzo[d]imidazole] |  |  | > 10 µM | 2 µM
13 | CC(C)Oc1ncnc2c1nc(-c1ccc(OCCN3CCN(C)CC3)cc1)n2Cc1ccccc1 [Example B1, 9-benzyl-6-isopropoxy-8-(4-(2-(4-methyl-piperazin-1-yl)ethoxy)phenyl)-9H-purine] |  |  | 7.94 µM | 1 µM
14 | Cc1cc(OCCN2CCNCC2)ccc1-c1nc2c(OC(C)C)ncnc2n1Cc1ccccc1 [Example B2, 9-benzyl-6-isopropoxy-8-(2-methyl-4-(2-(piperazin-1-yl)ethoxy)phenyl)-9H-purine] |  |  | 6.31 µM | 0.501 µM
15 | CC(=O)N1CCN(CCOc2ccc(-c3nc4c(OC(C)C)ncnc4n3Cc3ccccc3)c(C)c2)CC1 [Example B4, 1-(4-(2-(4-(9-benzyl-6-isopropoxy-9H-purin-8-yl)-3-methyl-phenoxy)ethyl)piperazin-1-yl)ethan-1-one] |  |  | > 10 µM | 0.794 µM
16 | Cc1cc(OCCN2CCN(C)CC2)ccc1-c1nc2c(OC3(C)CC3)ncnc2n1Cc1ccccc1 [Example C1, 9-benzyl-8-(2-methyl-4-(2-(4-methylpiperazin-1-yl)ethoxy)phenyl)-6-(1-methylcyclopropoxy)-9H-purine] |  |  | 5.01 µM | 0.1 µM
17 | CC(=O)N1CCN(c2cc(C)c(-c3nc4c(OC5(C)CC5)ncnc4n3Cc3ccccc3)cn2)CC1 [Example C2, 1-(4-(5-(9-benzyl-6-(1-methylcyclopropoxy)-9H-purin-8-yl)-4-methylpyridin-2-yl)piperazin-1-yl)ethan-1-one] |  |  | > 10 µM | 0.316 µM
18 | Cc1cc(OCCN2CCN(C)CC2)ncc1-c1nc2c(OC3(C)CC3)ncnc2n1Cc1ccccc1 [Example C3, 9-benzyl-8-(4-methyl-6-(2-(4-methylpiperazin-1-yl)ethoxy)pyridin-3-yl)-6-(1-methylcyclopropoxy)-9H-purine] |  |  | 7.94 µM | 0.316 µM
19 | CN(C)[C@@H]1CCN(c2ccc(-c3nc4c(OC5(C)CC5)ncnc4n3Cc3ccccc3)c(Cl)c2)C1 [Example C4, (R)-1-(4-(9-benzyl-6-(1-methylcyclopropoxy)-9H-purin-8-yl)-3-chlorophenyl)-N,N-dimethylpyrrolidin-3-amine] |  |  | 2.51 µM | 0.2 µM
20 | Cc1cc(N2CCNCC2)ncc1-c1nc2c(OC3(C)CC3)ncnc2n1Cc1ccccc1 [Example C5, 9-benzyl-8-(4-methyl-6-(piperazin-1-yl)pyridin-3-yl)-6-(1-methylcyclopropoxy)-9H-purine] |  |  | > 10 µM | 0.316 µM
21 | COc1cccc(-c2nc3c(OC4(C)CC4)ncnc3n2Cc2ccccc2)c1Cl [Example C6, 9-benzyl-8-(2-chloro-3-methoxyphenyl)-6-(1-methylcyclopropoxy)-9H-purine] |  |  | > 10 µM | 0.0794 µM
22 | CC1(Oc2ncnc3c2nc(-c2ccc(N4CCNCC4)cc2Cl)n3Cc2ccccc2)CC1 [Example C7, 9-benzyl-8-(2-chloro-4-(piperazin-1-yl)phenyl)-6-(1-methylcyclopropoxy)-9H-purine] |  |  | 6.31 µM | 0.251 µM
23 | CC1(Oc2ncnc3c2nc(-c2ccc(OCC(=O)N4CCNCC4)cc2Cl)n3Cc2ccccc2)CC1 [Example C8, 2-(4-(9-benzyl-6-(1-methylcyclopropoxy)-9H-purin-8-yl)-3-chloro-phenoxy)-1-(piperazin-1-yl)ethan-1-one] |  |  | 6.31 µM | 0.316 µM
24 | CN1CCN(C(=O)COc2ccc(-c3nc4c(OC5(C)CC5)ncnc4n3Cc3ccccc3)c(Cl)c2)CC1 [Example C9, 2-(4-(9-benzyl-6-(1-methylcyclopropoxy)-9H-purin-8-yl)-3-chloro-phenoxy)-1-(4-methyl-piperazin-1-yl)ethan-1-one] |  |  | > 10 µM | 0.126 µM
25 | CC(=O)N1CCC(COc2ccc(-c3nc4c(OC5(C)CC5)ncnc4n3Cc3ccccc3)c(Cl)c2)CC1 [Example D1, 1-(4-((4-(9-benzyl-6-(1-methylcyclopropoxy)-9H-purin-8-yl)-3-chlorophenoxy)methyl)piperidin-1-yl)ethan-1-one] |  |  | 6.31 µM | 0.0794 µM
26 | CC(=O)N1CCN(CCOc2ccc(-c3nc4c(OC5(C)CC5)ncnc4n3Cc3ccccc3)c(Cl)c2)CC1 [Example D5, 1-(4-(2-(4-(9-benzyl-6-(1-methylcyclopropoxy)-9H-purin-8-yl)-3-chlorophenoxy)ethyl)piperazin-1-yl)ethan-1-one] |  |  | 2.51 µM | 0.0631 µM
27 | CC1(Oc2ncnc3c2nc(-c2ccc(OCCCN)cc2Cl)n3Cc2ccccc2)CC1 [Example D6, 3-(4-(9-benzyl-6-(1-methylcyclopropoxy)-9H-purin-8-yl)-3-chlorophenoxy)propan-1-amine] |  |  | 5.01 µM | 0.631 µM
28 | CC(=O)NCCCOc1ccc(-c2nc3c(OC4(C)CC4)ncnc3n2Cc2ccccc2)c(Cl)c1 [Example D7, N-(3-(4-(9-benzyl-6-(1-methylcyclopropoxy)-9H-purin-8-yl)-3-chlorophenoxy)propyl)acetamide] |  |  | 6.31 µM | 0.126 µM
29 | CC(=O)N1CCN(CCOc2cccc(-c3nc4c(OC5(C)CC5)ncnc4n3Cc3ccccc3)c2Cl)CC1 [Example D8, 1-(4-(2-(3-(9-benzyl-6-(1-methylcyclopropoxy)-9H-purin-8-yl)-2-chlorophenoxy)ethyl)piperazin-1-yl)ethan-1-one] |  |  | 6.31 µM | 0.0501 µM
30 | CN1CCC(Oc2cccc(-c3nc4c(OC5(C)CC5)ncnc4n3Cc3ccccc3)c2Cl)CC1 [Example D9, 9-benzyl-8-(2-chloro-3-((1-methylpiperidin-4-yl)oxy)phenyl)-6-(1-methylcyclopropoxy)-9H-purine] |  |  | 2 µM | 0.158 µM
